From patent publication US20080175794A1, “Substituted Pyridazinyl- and Pyrimidinyl-Quinolin-4-Ylamine Analogues” (NEUROGEN CORPORATION, priority 2005, published 2008)
pIC50: −log10 of the molar value.

Target: T1, human capsaicin receptor (Homo sapiens, UniProt Q8NER1)
T1 construct: expressed in transfected cells
Experiment: Calcium mobilization assay, determination of antagonist activity (Example 6)
Assay type: cell-based
Conditions: assay provided in Example 6, cells expressing human capsaicin receptor, capsaicin at EC50
Procedure: A cDNA encoding full length human capsaicin receptor (SEQ ID NO:1, 2 or 3 of U.S. Pat. No. 6,482,611) is subcloned in the plasmid pBK-CMV (Stratagene, La Jolla, Calif.) for recombinant expression in mammalian cells.
Human embryonic kidney (HEK293) cells are transfected with the pBK-CMV expression construct encoding the full length human capsaicin receptor using standard methods. The transfected cells are selected over two weeks in media containing G418 (400 μg/ml) to obtain a pool of stably transfected cells. Independent clones are isolated from this pool by limiting dilution to obtain clonal stable cell lines for use in subsequent experiments.
Cells transfected with expression plasmids (as described in Example 4) and thereby expressing human capsaicin receptor are seeded and grown to 70-90% confluency in FALCON black-walled, clear-bottomed 96-well plates (#3904, BECTON-DICKINSON, Franklin Lakes, N.J.). The culture medium is emptied from the 96 well plates and FLUO-3 AM calcium sensitive dye (Molecular Probes, Eugene, Oreg.) is added to each well (dye solution: 1 mg FLUO-3 AM, 440 μL DMSO and 440 μl 20% pluronic acid in DMSO, diluted 1:250 in Krebs-Ringer HEPES (KRH) buffer (25 mM HEPES, […], 0.96 mM NaH2PO4, 1 mM MgSO4, 2 mM CaCl2, 5 mM glucose, 1 mM probenecid, pH 7.4), 50 μl diluted solution per well). Plates are covered with aluminum foil and incubated at 37° C. for 1-2 hours in an environment containing 5% CO2. After the incubation, the dye is emptied from the plates, and the cells are washed once with KRH buffer, and resuspended in KRH buffer.
To measure the ability of a test compound to agonize or antagonize a calcium mobilization response in cells expressing capsaicin receptors to capsaicin or other vanilloid agonist, the EC50 of the agonist capsaicin is first determined. An additional 20 μl of KRH buffer and 1 μl DMSO is added to each well of cells, prepared as described above. 100 μl capsaicin in KRH buffer is automatically transferred by the FLIPR instrument to each well. Capsaicin-induced calcium mobilization is monitored using either FLUOROSKAN ASCENT (Labsystems; Franklin, Mass.) or FLIPR (fluorometric imaging plate reader system; Molecular Devices, Sunnyvale, Calif.) instruments. Data obtained between 30 and 60 seconds after agonist application are used to generate an 8-point concentration response curve, with final capsaicin concentrations of 1 nM to 3 μM. KALEIDAGRAPH software (Synergy Software, Reading, Pa.) is used to fit the data to the equation: […]
Test compounds are dissolved in DMSO, diluted in 20 μl KRH buffer so that the final concentration of test compounds in the assay well is between […] and 5 μM, and added to cells prepared as described above. The 96 well plates containing prepared cells and test compounds are incubated in the dark at room temperature for 0.5 to 6 hours. It is important that the incubation not continue beyond 6 hours. Just prior to determining the fluorescence response, 100 μl capsaicin in KRH buffer at twice the EC50 concentration determined as described above is automatically added by the FLIPR instrument to each well of the 96 well plate for a final sample volume of 200 μl and a final capsaicin concentration equal to the EC50. The final concentration of test compounds in the assay wells is between 1 μM and 5 μM. […] The concentration of antagonist required to provide a 50% decrease, relative to the response observed in the presence of capsaicin and without antagonist, is the IC50 for the antagonist, and is preferably below 1 micromolar, 100 nanomolar, 10 nanomolar or 1 nanomolar.

T1 sequence (Q8NER1 whole entry): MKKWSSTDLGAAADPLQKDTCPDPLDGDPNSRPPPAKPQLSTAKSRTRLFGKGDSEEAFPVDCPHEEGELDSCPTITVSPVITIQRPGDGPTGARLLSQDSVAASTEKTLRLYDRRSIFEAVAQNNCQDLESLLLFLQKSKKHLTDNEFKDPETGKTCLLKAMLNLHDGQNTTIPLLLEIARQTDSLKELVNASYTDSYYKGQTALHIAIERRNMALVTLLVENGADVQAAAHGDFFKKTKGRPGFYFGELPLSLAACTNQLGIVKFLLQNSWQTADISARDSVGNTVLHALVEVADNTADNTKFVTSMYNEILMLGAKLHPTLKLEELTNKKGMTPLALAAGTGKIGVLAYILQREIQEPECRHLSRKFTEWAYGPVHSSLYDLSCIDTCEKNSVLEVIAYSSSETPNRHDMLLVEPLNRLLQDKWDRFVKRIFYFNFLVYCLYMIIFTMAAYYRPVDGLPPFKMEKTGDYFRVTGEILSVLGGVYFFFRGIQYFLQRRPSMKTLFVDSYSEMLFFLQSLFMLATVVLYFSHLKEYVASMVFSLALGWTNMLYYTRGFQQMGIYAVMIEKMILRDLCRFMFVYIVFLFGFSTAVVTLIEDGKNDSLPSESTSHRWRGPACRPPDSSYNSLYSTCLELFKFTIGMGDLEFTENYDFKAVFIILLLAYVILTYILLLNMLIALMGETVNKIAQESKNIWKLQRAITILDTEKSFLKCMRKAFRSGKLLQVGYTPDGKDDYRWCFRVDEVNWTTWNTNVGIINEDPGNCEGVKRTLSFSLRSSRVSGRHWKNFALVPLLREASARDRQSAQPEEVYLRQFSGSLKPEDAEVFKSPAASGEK

Compound | pIC50 | pIC50 (Table III)
FC(F)(F)c1ccc(Nc2ccnc3nc(-c4ncncc4C(F)(F)F)ccc23)nc1 [Compound 5, N-[5-(Trifluoromethyl)pyridin-2-yl]-7-[5-(trifluoromethyl)pyrimidin-4-yl]-1,8-naphthyridin-4-amine] | > 6.00 | –
CCOc1nc(Nc2ccnc3nc(-c4nnccc4C(F)(F)F)cnc23)ccc1C(F)(F)F [Compound 44, N-[6-ethoxy-5-(trifluoromethyl)-2-pyridinyl]-3-[4-(trifluoromethyl)-3-pyridazinyl]pyrido[2,3-b]pyrazin-8-amine] | – | > 6.00
FC(F)(F)c1ccnnc1-c1cnc2c(Nc3cnc4ccccc4n3)ccnc2n1 [Compound 45, N-2-quinoxalinyl-3-[4-(trifluoromethyl)-3-pyridazinyl]pyrido[2,3-b]pyrazin-8-amine] | – | > 6.00
CS(=O)(=O)c1ccc(Nc2ccnc3nc(-c4nnccc4C(F)(F)F)cnc23)nc1 [Compound 47, N-[5-(methylsulfonyl)-2-pyridinyl]-3-[4-(trifluoromethyl)-3-pyridazinyl]pyrido[2,3-b]pyrazin-8-amine] | – | > 6.00
CCOc1cc(C(F)(F)F)c(-c2cnc3c(Nc4ccc(C(F)(F)F)cn4)ccnc3n2)nn1 [Compound 50, 3-[6-ethoxy-4-(trifluoromethyl)pyridazin-3-yl]-N-[5-(trifluoromethyl)pyridin-2-yl]pyrido[2,3-b]pyrazin-8-amine] | – | > 6.00
CCCOCCNc1cc(C(F)(F)F)c(-c2cnc3c(Nc4ccc(C(F)(F)F)cn4)ccnc3n2)nn1 [Compound 52, 3-[6-[(2-propoxyethyl)amino]-4-(trifluoromethyl)pyridazin-3-yl]-N-[5-(trifluoromethyl)pyridin-2-yl]pyrido[2,3-b]pyrazin-8-amine] | – | > 6.00
FC(F)(F)c1ccc(Nc2ccnc3nc(-c4nnc(N5CCOCC5)cc4C(F)(F)F)cnc23)nc1 [Compound 53, 3-[6-morpholin-4-yl-4-(trifluoromethyl)pyridazin-3-yl]-N-[5-(trifluoromethyl)pyridin-2-yl]pyrido[2,3-b]pyrazin-8-amine] | – | > 6.00
CN(C)C(=O)CN(C)c1cc(C(F)(F)F)c(-c2cnc3c(Nc4ccc(C(F)(F)F)cn4)ccnc3n2)nn1 [Compound 59, N,N,N2-trimethyl-N2-[5-(trifluoromethyl)-6-(8-{[5-(trifluoromethyl)pyridin-2-yl]amino}pyrido[2,3-b]pyrazin-3-yl)pyridazin-3-yl]glycinamide] | – | > 6.00
NC(=O)c1cc(C(F)(F)F)c(-c2cnc3c(Nc4ccc(C(F)(F)F)cn4)ccnc3n2)nn1 [Compound 60, 5-(trifluoromethyl)-6-(8-{[5-(trifluoromethyl)pyridin-2-yl]amino}pyrido[2,3-b]pyrazin-3-yl)pyridazine-3-carboxamide] | – | > 6.00
CN(C)CCOc1cc(C(F)(F)F)c(-c2cnc3c(Nc4ccc(C(F)(F)F)cn4)ccnc3n2)nn1 [Compound 62, 3-{6-[2-(dimethylamino)ethoxy]-4-(trifluoromethyl)pyridazin-3-yl}-N-[5-(trifluoromethyl)pyridin-2-yl]pyrido[2,3-b]pyrazin-8-amine] | – | > 6.00
OCCOc1cc(C(F)(F)F)c(-c2cnc3c(Nc4ccc(C(F)(F)F)cn4)ccnc3n2)nn1 [Compound 63, 2-{[5-(trifluoromethyl)-6-(8-{[5-(trifluoromethyl)pyridin-2-yl]amino}pyrido[2,3-b]pyrazin-3-yl)pyridazin-3-yl]oxy}ethanol] | – | > 6.00
CN(C)CCCOc1cc(C(F)(F)F)c(-c2cnc3c(Nc4ccc(C(F)(F)F)cn4)ccnc3n2)nn1 [Compound 64, 3-{6-[3-(dimethylamino)propoxy]-4-(trifluoromethyl)pyridazin-3-yl}-N-[5-(trifluoromethyl)pyridin-2-yl]pyrido[2,3-b]pyrazin-8-amine] | – | > 6.00
CN1CCCC1CCOc1cc(C(F)(F)F)c(-c2cnc3c(Nc4ccc(C(F)(F)F)cn4)ccnc3n2)nn1 (stereo not drawn) [Compound 65, 3-{6-[2-(1-methylpyrrolidin-2-yl)ethoxy]-4-(trifluoromethyl)pyridazin-3-yl}-N-[5-(trifluoromethyl)pyridin-2-yl]pyrido[2,3-b]pyrazin-8-amine] | – | > 6.00
CN(CCOCCO)c1cc(C(F)(F)F)c(-c2cnc3c(Nc4ccc(C(F)(F)F)cn4)ccnc3n2)nn1 [Compound 67, 2-(2-{methyl[5-(trifluoromethyl)-6-(8-{[5-(trifluoromethyl)pyridin-2-yl]amino}pyrido[2,3-b]pyrazin-3-yl)pyridazin-3-yl]amino}ethoxy)ethanol] | – | > 6.00

Further lines, results first:

pIC50 | pIC50 (Table III) | Compound
> 6.00 | – | FC(F)(F)c1ccc(Nc2ccnc3nc(-c4nnccc4C(F)(F)F)ccc23)nc1 [Compound 1, N-[5-(Trifluoromethyl)pyridin-2-yl]-7-[4-(trifluoromethyl)pyridazin-3-yl]-1,8-naphthyridin-4-amine]
> 6.00 | – | FC(F)(F)c1ccc(Nc2ccnc3nc(-c4nnccc4C(F)(F)F)cnc23)nc1 [Compound 2, N-[5-(Trifluoromethyl)pyridin-2-yl]-3-[4-(trifluoromethyl)pyridazin-3-yl]pyrido[2,3-b]pyrazin-8-amine]
– | > 6.00 | FC(F)(F)c1cnc(Nc2ccnc3nc(-c4nnccc4C(F)(F)F)cnc23)cn1 [Compound 46, N-[5-(trifluoromethyl)-2-pyrazinyl]-3-[4-(trifluoromethyl)-3-pyridazinyl]pyrido[2,3-b]pyrazin-8-amine]
– | > 6.00 | CC(C)Nc1nc(Nc2ccnc3nc(-c4nnccc4C(F)(F)F)cnc23)ccc1C(F)(F)F [Compound 48, N2-isopropyl-3-(trifluoromethyl)-N-~6~-{3-[4-(trifluoromethyl)pyridazin-3-yl]pyrido[2,3-b]pyrazin-8-yl}pyridine-2,6-diamine]
– | > 6.00 | COc1nc(Nc2ccnc3nc(-c4nnccc4C(F)(F)F)cnc23)ccc1C(F)(F)F [Compound 49, N-[6-methoxy-5-(trifluoromethyl)pyridin-2-yl]-3-[4-(trifluoromethyl)pyridazin-3-yl]pyrido[2,3-b]pyrazin-8-amine]
– | > 6.00 | CN(C)c1cc(C(F)(F)F)c(-c2cnc3c(Nc4ccc(C(F)(F)F)cn4)ccnc3n2)nn1 [Compound 54, 3-[6-(dimethylamino)-4-(trifluoromethyl)pyridazin-3-yl]-N-[5-(trifluoromethyl)pyridin-2-yl]pyrido[2,3-b]pyrazin-8-amine]
– | > 6.00 | N#Cc1cc(C(F)(F)F)c(-c2cnc3c(Nc4ccc(C(F)(F)F)cn4)ccnc3n2)nn1 [Compound 55, 5-(trifluoromethyl)-6-(8-{[5-(trifluoromethyl)pyridin-2-yl]amino}pyrido[2,3-b]pyrazin-3-yl)pyridazine-3-carbonitrile]
– | > 6.00 | CN(CC(=O)O)c1cc(C(F)(F)F)c(-c2cnc3c(Nc4ccc(C(F)(F)F)cn4)ccnc3n2)nn1 [Compound 56, N-methyl-N-[5-(trifluoromethyl)-6-(8-{[5-(trifluoromethyl)pyridin-2-yl]amino}pyrido[2,3-b]pyrazin-3-yl)pyridazin-3-yl]glycine]
– | > 6.00 | CN(CC(N)=O)c1cc(C(F)(F)F)c(-c2cnc3c(Nc4ccc(C(F)(F)F)cn4)ccnc3n2)nn1 [Compound 57, N2-methyl-N2-[5-(trifluoromethyl)-6-(8-{[5-(trifluoromethyl)pyridin-2-yl]amino}pyrido[2,3-b]pyrazin-3-yl)pyridazin-3-yl]glycinamide]
– | > 6.00 | CNC(=O)CN(C)c1cc(C(F)(F)F)c(-c2cnc3c(Nc4ccc(C(F)(F)F)cn4)ccnc3n2)nn1 [Compound 58, N,N2-dimethyl-N2-[5-(trifluoromethyl)-6-(8-{[5-(trifluoromethyl)pyridin-2-yl]amino}pyrido[2,3-b]pyrazin-3-yl)pyridazin-3-yl]glycinamide]
